The values that follow are results of earlier work, collected in patent publication US12076400B2, “Methods of using a bispecific antigen-binding construct targeting HER2 in combination with CDK4/6 inhibitors for the treatment of breast cancer” (c/o Zymeworks BC Inc., priority 2019, dated 2024).

In this data set the test system is estrogen receptor (ER)-positive breast cancer cell lines. The following applies: by blocking progression from G1 into S phase.

For `CC(=O)c1c(C)c2cnc(Nc3ccc(N4CCNCC4)cn3)nc2n(C2CCCC2)c1=O` [palbociclib, Palbociclib], the “Cellular proliferation in vitro” value is reported as “reduced cellular proliferation”.
